Patent US20220087946A1, “COMPOSITIONS, METHODS, SYSTEMS AND/OR KITS FOR PREVENTING AND/OR TREATING NEOPLASMS” (Research Cancer Institute of America, priority 2017, published 2022)

Assays:
[1] = cited from earlier work
OVCAR 3 Cancer cells = experiment: Nano formulations in animals with implanted tumor: side effects; details: mouse, in vivo
Procedure: Animals—Immunodeficient, female athymic mice aged 5-6 weeks and weighing between 18 and 20 g were purchased from Taconic Biosciences (Albany, N.Y.). All animal studies were conducted at the animal facility of the Veteran Affairs Medical Center, Albany, N.Y. in accordance with and approved by institutional guidelines for humane animal treatment and according to the current guidelines. Mice were maintained under specific pathogen-free conditions and housed under controlled conditions of temperature (20-24° C.) and humidity (60-70%) and 12 h light/dark cycle with ad libitum access to water and food. Mice were allowed to acclimatize for 5 d prior to the start of study.
Treatment—OVCAR 3 Cancer cells (1×10^6) were implanted subcutaneously in right flank of each animal. In the first set of experiments, control, free Quercetin (3 mg/kg), NPS-quercetin(3 mg/kg), and FA-NPs-quercetin (3 mg/kg) were injected subcutaneously to the mice everyday (for 14 days). The control was PBS, after humane sacrifice of animals at 14 days, tumors were harvested and amount of QC was measured.

**Q.** With O=c1c(O)c(-c2ccc(O)c(O)c2)oc2cc(O)cc(O)c12 [Quercetin, quercetin] as the compound, how does the water solubility [1] read?
**A.** The water solubility was “not water soluble”.

**Q.** And the “adverse toxic effect on the health of tumor bearing mice” value (OVCAR 3 Cancer cells)?
**A.** Its value is “does not have any adverse toxic effect”.
